These are literature values, as cited in patent US20160213782A1, “POLYURETHANES AS ORAL DRUG DELIVERY PLATFORM” (Universiteit Gent, priority 2013, published 2016).

For the series the following is noted: for aqueous solubility in 100 ml at 25° C.: in 100 ml water; for drug solubility: as given in legend of FIG. 1.

The structures appear in SMILES notation. Counter-ions that a name gives are not always drawn.

As for `Cn1c(=O)c2c(ncn2CC(O)CO)n(C)c1=O` (centres unmarked) [Dyph, 7-(2,3-dihydroxypropyl)-theophylline], the “aqueous solubility in 100 ml at 25° C.” value is 33 g. For the molecule `COCCc1ccc(OCC(O)CNC(C)C)cc1` (centres unmarked) [MPT, Metoprolol tartrate], the drug solubility was over 1000 mg/mL. In the case of `Cn1c(=O)c2[nH]cnc2n(C)c1=O` [TH, Theophylline], the drug solubility is 10 mg/mL and the “aqueous solubility in 100 ml at 25° C.” value is reported as 0.7 g.

Turning to `CC(=O)Nc1ccc(O)cc1` [acetaminophen], the “aqueous solubility in 100 ml at 25° C.” value is 1.4 g.
